In patent US9278131B2, “Process for lowering the viscosity of highly concentrated protein solutions” (ADOCIA, priority 2012, dated 2016):

Assays:
[1] = biological target: T1, abatacept (Homo sapiens, UniProt P16410); assay: viscosity of highly concentrated abatacept (fusion protein) solution, cone/plate rheometer; format: physicochemical; settings: Table I; abatacept 230 mg/mL, 150 mM additive, pH 7.5 ± 0.5, 21° C.
T1 construct: a fragment of a protein of interest which is the extracellular domain of the receptor of protein CTLA-4; purchased Bristol-Meyers Squibb (Orencia)
T1 sequence (P16410 with tags, fused parts or gaps limits assumed): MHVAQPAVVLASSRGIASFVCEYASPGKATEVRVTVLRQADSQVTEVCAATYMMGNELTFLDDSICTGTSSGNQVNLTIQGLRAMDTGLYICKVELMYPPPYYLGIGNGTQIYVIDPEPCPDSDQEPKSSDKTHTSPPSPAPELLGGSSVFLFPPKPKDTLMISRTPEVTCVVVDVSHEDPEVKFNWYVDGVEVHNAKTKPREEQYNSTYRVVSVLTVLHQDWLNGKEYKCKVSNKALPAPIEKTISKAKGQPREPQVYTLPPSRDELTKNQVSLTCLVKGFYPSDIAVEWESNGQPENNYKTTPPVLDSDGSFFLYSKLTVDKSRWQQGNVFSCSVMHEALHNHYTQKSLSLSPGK
From the text: For this example, three solutions of monoclonal antibodies, i.e. a solution of bevacizumab (an IgG1 sold under the name Avastin® by Genentech/Hoffmann La Roche), a solution of infliximab (an IgG1/K sold under the name Remicade® by Schering-Plough), a solution of rituximab (an IgG1/K sold under the name mAbThera® by Hoffmann La Roche) and a solution of fusion protein, i.e. a solution of abatacept (IgG1-CTLA4 sold under the name Orencia® by Bristol-Meyers Squibb), were concentrated by ultrafiltration on Amicon® Ultra-15 filtration units with a cutoff threshold of 50 kDa.
The protein concentration of each concentrated solution was measured by UV spectroscopy (absorbance at 280 nm) after gravimetric dilution of the samples.
The effect of RVs 2 and 9 on the viscosity of these four highly concentrated therapeutic protein solutions was then evaluated comparatively with that of Arg and NaCl. To do this, the viscosity was measured using a cone/plate rheometer (TA Instrument, AR 2000 Ex, geometry of diameter 20 mm, cone of 0.5131°, solvent trap filled with water) at a temperature of 21° C. and in flow sweep mode with shear rates of between 5000 and 50 s^−1 (3 points per decade—steady-state sensing). […]

[2] = test system: trastuzumab; assay: viscosity of highly concentrated trastuzumab formulation, cone/plate rheometer at 25° C. (example 7); format: physicochemical; settings: Table VII; trastuzumab 200 mg/mL, 150 mM additive, pH 6 ± 0.2, 25° C.
Method: For this example, two monoclonal antibody formulations, i.e. infliximab and trastuzumab (an IgG1/κ sold under the name Herceptin® by Genentech) were concentrated by ultrafiltration on Amicon® Ultra-50 centrifugal filtration units with a cutoff threshold of 50 kDa. The protein concentration of each concentrated solution was measured by UV spectroscopy (absorbance at 280 nm) after gravimetric dilution of the samples.
Once reconstituted, the infliximab and trastuzumab formulations were concentrated, respectively, to 212 mg/mL and 277 mg/mL.
The effect of RVs 2 and 11 on the viscosity of these two highly concentrated therapeutic protein formulations was then evaluated comparatively to that of Arg and NaCl. To do this, the viscosity was measured using a cone/plate rheometer (TA Instrument, AR 2000 Ex, geometry of diameter 20 mm, cone of 0.5131°, solvent trap filled with water) at a temperature of 25° C. and in flow sweep mode with shear rates of between 5000 and 50 s^−1 (3 points per decade—steady-state sensing). […]

## Cl.N=C(N)NCCC[C@H](N)C(=O)O [Arg, L-arginine hydrochloride salt]
[1]
  % viscosity reduction relative to the control “protein alone”: 31%
[2]
  % of viscosity reduction relative to the control “protein alone”: 56%
